One test deals with T1, aromatase (Rattus norvegicus, UniProt P22443).
T1 construct: ovarian microsomes are obtained from rats treated with pregnant mares serum gonadotropin; from tissue; host or cells: ovarian microsomes from rats treated with pregnant mares serum gonadotropin
T1 sequence (P22443 1-508): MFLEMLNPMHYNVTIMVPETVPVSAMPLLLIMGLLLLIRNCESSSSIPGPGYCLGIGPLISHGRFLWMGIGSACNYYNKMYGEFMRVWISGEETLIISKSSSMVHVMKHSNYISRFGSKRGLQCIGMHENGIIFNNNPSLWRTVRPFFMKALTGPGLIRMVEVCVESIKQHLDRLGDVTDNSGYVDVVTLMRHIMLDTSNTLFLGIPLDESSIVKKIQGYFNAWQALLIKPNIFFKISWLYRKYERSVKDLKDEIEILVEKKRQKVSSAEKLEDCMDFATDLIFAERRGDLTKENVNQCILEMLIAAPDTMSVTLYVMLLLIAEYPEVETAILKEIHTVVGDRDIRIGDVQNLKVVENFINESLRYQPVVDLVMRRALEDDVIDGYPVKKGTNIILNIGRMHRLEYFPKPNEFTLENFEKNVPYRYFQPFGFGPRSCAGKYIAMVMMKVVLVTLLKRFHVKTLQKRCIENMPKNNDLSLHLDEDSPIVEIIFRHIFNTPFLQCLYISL
Nature of the test: Aromatase inhibition in the rat ovarian microsome assay. The test is classed as biochemical. How it is done:
In this test system, ovarian microsomes are obtained from rats treated with pregnant mares serum gonadotropin. Test compounds are added to reaction vials containing 0.1 μM 4-androstene-3,17-dione, 100,000 dpm 1,2[^3 H]-androstenedione, the microsomes and a NADPH generating system. The concentrations of the inhibitors tested ranged between 0.005 and 10 μM.

The test system of test [1] is aromatization. Nature of the test: Estrogen synthesis inhibition in rats: uterine weight. It counts as in vivo, rat (immature female Wistar). To be noted: 7 days, testosterone propionate treated. How it is done:
(§1) Immature female Wistar rats (45-55 grams) were divided into control and test groups of 4-8 animals each. Test compounds were administered for seven days as a component of the diet. Control animals received diet without the test compound. Beginning on the fourth day of the test, all animals treated with the test compound and one half of the control animals were given a subcutaneous injection of 1.0 mg of testosterone propionate in corn oil. The remaining control animals received only an equivalent volume of corn oil. On the seventh day of the test, rats treated with testosterone propionate were injected subcutaneously with 100 μCi of [^3 H]-testosterone in 50 μl of 3:1 (v/v) saline-ethanol.
After two hours, the animals were killed by decapitation. Uteri were isolated, trimmed of extraneous connective tissue, and weighed. […] In the control animals treated with testosterone propionate, estrogens produced by aromatization stimulated the uterus resulting in an increase in weight.

Test [2] concerns aromatization. Nature of the test: Estrogen synthesis inhibition in rats: ovarian steroid concentrations. The test is classed as in vivo, rat (immature female Wistar). To be noted: ovary, 7 days. How it is done: as §1
Ovaries from rats treated with [^3 H]-testosterone were excised, cleaned of extraneous tissue, and homogenized in 2.5 ml of a 1.0 mM potassium phosphate buffer containing 3.0 mM MgCl2.6H2 O, 320 mM sucrose, and 0.25% Triton X-100 (polyethylene glycol p-isooctyl phenyl ether, Rohm and Hass) at pH 6.5. The ovarian steroids were extracted with 1.5 ml of 9:1 (v/v) toluene/ethanol to which had been added 25 to 100 mcg each of unlabelled estradiol, estriol, and estrone, and approximately 1000 dpm of [^14 C]-estradiol. The samples were vortexed, centrifuged at 500×g for 10 minutes, and the organic phase was transferred to a conical vial. Two additional extractions were performed on the residue in the same way. The pooled organic extracts were evaporated for subsequent thin-layer chromatography.
Ovarian proteins were precipitated by the addition of 5.0 ml of ethanol to the remaining aqueous phase. After an overnight incubation at 4° C., the samples were centrifuged at 1500×g for 10 minutes. The supernatant was discarded and the pellet was dissolved in 0.3N potassium hydroxide. Protein was determined according to the method of Bradford, Analytical Biochemistry, 72, 248 (1976).
The organic residue from each above extraction was redissolved in 9:1 (v/v) dichloromethane/methanol. The solution of each sample was applied to separate silica gel thin layer chromatography plates which contained a fluorescent indicator. The plates were developed in the first dimension with 160:38:1.5:0.5 (v/v/v/v) dichloromethane/ethyl acetate/methanol/acetic acid to within 3 cm of the top of the plate. After air-drying, the plate was developed in the second dimension with 180:19:1 (v/v/v) dichloromethane/methanol/ammonium hydroxide. The plate was air-dried and viewed under 254 nm UV light.
The visible spots were marked and the plates were sprayed with primulin (0.001% in 4:1 v/v acetone/water) according to the method of Wright, J. Chromatography, 59, 220 (1971) which allowed for the identification of additional steroids under 365 nm UV light. The spots were scraped from the plate using a glass wool plugged Pasteur pipet attached to a vacuum line. The steroids were eluted directly into scintillation vials by the addition of 0.2 ml of dichloromethane followed by two washes each of 2.0 ml of methanol. The organic solvent was evaporated and 10.0 ml of scintillation fluid (Beckman Ready Solv-NA) was added to the vials. Samples were analyzed by liquid scintillation spectrometry. Corrections were made based on the recoveries of the [^14 C]-steroid. Steroid concentrations are expressed as femtomoles per milligram protein.

Test [3] relates to DMBA-induced mammary tumors. Nature of the test: DMBA-induced mammary tumor inhibition. The test is classed as in vivo, rat (female Sprague-Dawley). Particulars: Test I, 20 mg/kg, once daily by gavage in corn oil. How it is done:
Mammary tumors were produced in female Sprague-Dawley rats which were 50-60 days old by the gavage administration of 20 mg of 7,12-dimethylbenz[α]anthracene (DMBA). About six weeks after DMBA administration, the mammary glands were palpated at weekly intervals for the appearance of tumors. Whenever one or more tumors appeared and were measurable in an animal, that animal was selected for experimentation. […] Each control and test group contained 8 animals. The test compound was administered in corn oil and administered once daily by gavage.
Every experiment included a group of control rats having tumors that were given corn oil vehicle by gavage. […] The area of each tumor was calculated by multiplying the shortest and longest diameters of the tumor. The treatment and measurement of animals continued for five weeks at which time the final areas of the tumors were determined. The change in the mean tumor area was determined, and the means change was analyzed for its significance using Dunnett's t-test.

The test system of the next test is breast cancer. Particulars: Cancer Research, Vol. 42, Suppl. 8:3261s (1982); cited from earlier work.
Setting [4] is: rat ovarian microsomes, substrate (androstenedione) 0.1 μM, read-out: EC50 (concentration required to achieve 50% inhibition of aromatase activity).
Setting [5] is: Test I, 30 ppm in feed (approx. 3 mg/kg/day).
[6] abbreviates: Test I, 300 ppm in feed (approx. 30 mg/kg/day).
Setting [7] is: Test II, 200 ppm in feed (approx. 20 mg/kg/day).

Here are results for twelve molecules from patent US4605661A, “Aromastase inhibiting α,α-diarylimidazole-4(5)-propionitriles, α,α-diarylimidazole-4(5)-propionamides, and 4(5)-(2,2-diarylethyl)imidazoles” (Eli Lilly and Company, priority 1984, dated 1986).

Counter-ions that a name gives are not always drawn. Like-named read-outs stand apart in the source and are kept apart here.

`N#CC(Cc1c[nH]cn1)(c1ccccc1)c1cccc(Cl)c1` (stereo not drawn) [α-(3-chlorophenyl)-α-phenyl-imidazole-4(5)-propionitrile hydrochloride]: the EC50 at aromatase (setting [4]) came out at 78 nM.
As for `N#CC(Cc1c[nH]cn1)(c1ccccc1)c1ccccc1` [α,α-diphenylimidazole-4(5)-propionitrile, maleic acid salt], on aromatase (setting [4]), the EC50 turned out to be 165 nM.
For `N#CC(Cc1c[nH]cn1)(c1ccc(Cl)cc1)c1ccc(Cl)cc1` [α,α-bis(4-chlorophenyl)-imidazole-4(5)-propionitrile, maleic acid salt], on aromatase (setting [4]), the EC50 amounted to 62 nM. In addition, the “Mean Uterine Weight” value is 166.0 mg in the test with aromatization [1] (Test I, 30 ppm in feed (approx. 3 mg/kg/day), 4 animals) and 141.6 mg in the test with aromatization [1] (Test I, 300 ppm in feed (approx. 30 mg/kg/day), 5 animals, + p < 0.05 vs testosterone-treated control). In addition, the results for the “Mean Steroid Concentration, estradiol” value in the test with aromatization [2] (setting [5]) and in the test on aromatization [2] (setting [6]) were 1.36 femtomoles per milligram of protein and 1.06 femtomoles per milligram of protein, respectively. For the same molecule, the “Mean Steroid Concentration, estriol” value is given as 0.72 femtomoles per milligram of protein in the test with aromatization [2] (setting [5]) and 0.23 femtomoles per milligram of protein with aromatization [2] (setting [6]). Also, the “Mean Steroid Concentration, estrone” value in the test on aromatization [2] (setting [5]) is 0.11 femtomoles per milligram of protein; in the test with aromatization [2] (Test I, 300 ppm in feed (approx. 30 mg/kg/day), + p < 0.05 vs testosterone-treated control), 0.00 femtomoles per milligram of protein. Besides, the “Mean Tumor Area, Finish” value in test [3] (5 weeks, control 78.3 to 980.8, + p < 0.05 vs control) is given as 389.7 mm^2. The “Mean Tumor Area, Start” value in test [3] (start of test (baseline)) amounted to 67.0 mm^2.
As to `N#CC(Cc1c[nH]cn1)(c1ccccc1)c1cccnc1` (stereo not drawn) [α-[1-imidazol-4(5)-ylmethyl]-α-phenyl-3-pyridineacetonitrile dihydrochloride], the EC50 at aromatase (setting [4]) is 560 nM.
For the molecule `NC(=O)C(Cc1c[nH]cn1)(c1ccccc1)c1ccccc1` [α,α-Diphenylimidazole-4-propionamide hydrochloride], the EC50 at aromatase (setting [4]) was 118 nM.
Take `C[C@]12C=CC(=O)C=C1CC[C@@H]1[C@@H]2CC[C@]2(C)OC(=O)CC[C@@H]12` [testolactone]: the “effect in treatment of breast cancer” value in the test on breast cancer was “beneficial effect”.
`c1ccc(C(Cc2c[nH]cn2)c2ccccc2)cc1` [4(5)-(2,2-diphenylethyl)imidazole, 4(5)-(2,2-Diphenylethyl)imidazole]: the EC50 on aromatase turned out to be 94 nM.
With `COc1ccc(C(C#N)(Cc2c[nH]cn2)c2ccccc2)cc1` (stereo not drawn) [α-(4-methoxyphenyl)-α-phenyl-imidazole-4(5)-propionitrile, maleic acid salt], the EC50 at aromatase (setting [4]) was found to be 180 nM.
Take `NC(=O)C(Cc1c[nH]cn1)(c1ccc(Cl)cc1)c1ccc(Cl)cc1` [α,α-Bis(4-chlorophenyl)-1H-imidazole-4(5)-propionamide hydrochloride]: at aromatase (setting [4]), the EC50 was under 50 nM.
Take `CCC1(c2ccc(N)cc2)CCC(=O)NC1=O` (centres unmarked) [aminoglutethimide]: the “effect in treatment of breast cancer” value in the test on breast cancer is “beneficial effect”.
On to `N#CC(Cc1c[nH]cn1)(c1ccccc1)c1ccc(C(F)(F)F)cc1` (stereo not drawn) [α-phenyl-α-(4-trifluoromethylphenyl)-1H--imidazole-4(5)-propionitrile], for which the EC50 at aromatase (setting [4]) was found to be 73 nM. In the test on aromatization [1] (Test II, 200 ppm in feed (approx. 20 mg/kg/day), 5 animals, + p < 0.05 vs testosterone-treated control), the “Mean Uterine Weight” value stood at 142.2 mg. Moreover, in the test on aromatization [2] (setting [7]), the “Mean Steroid Concentration, estradiol” value is recorded as 1.01 femtomoles per milligram of protein; the “Mean Steroid Concentration, estriol” value is listed as 0.31 femtomoles per milligram of protein; the “Mean Steroid Concentration, estrone” value is 0.00 femtomoles per milligram of protein.
For the molecule `N#CC(Cc1c[nH]cn1)(c1ccccc1)c1ccc(Cl)cc1` (stereo not drawn) [α-(4-chlorophenyl)-α-phenyl-imidazole-4(5)-propionitrile, maleic acid salt], the EC50 at aromatase turned out to be 72 nM.
